Laboratory results from ChEMBL document CHEMBL5291721, “A preclinical secondary pharmacology resource illuminates target-adverse drug reaction associations of marketed drugs” (Nat Commun, 2023).

Legend:
[1] = target: T1, Muscarinic acetylcholine receptor M2 (Homo sapiens, UniProt P08172)
T1 sequence (P08172 whole entry): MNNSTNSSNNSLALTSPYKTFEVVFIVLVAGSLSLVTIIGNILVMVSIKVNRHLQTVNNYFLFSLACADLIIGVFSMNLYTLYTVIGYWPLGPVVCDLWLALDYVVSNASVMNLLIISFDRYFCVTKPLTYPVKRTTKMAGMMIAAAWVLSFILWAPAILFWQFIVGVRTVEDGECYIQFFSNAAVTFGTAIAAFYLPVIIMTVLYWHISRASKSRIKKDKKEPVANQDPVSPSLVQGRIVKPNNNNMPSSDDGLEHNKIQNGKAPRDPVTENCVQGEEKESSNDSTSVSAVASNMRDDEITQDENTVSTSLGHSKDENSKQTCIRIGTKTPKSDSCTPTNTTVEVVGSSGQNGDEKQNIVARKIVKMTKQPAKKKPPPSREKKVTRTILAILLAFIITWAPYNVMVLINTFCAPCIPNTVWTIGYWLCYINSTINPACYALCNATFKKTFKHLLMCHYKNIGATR

[2] = target: 5-hydroxytryptamine receptor 2A (Homo sapiens, UniProt P28223)
5-hydroxytryptamine receptor 2A, sequence (P28223 whole entry): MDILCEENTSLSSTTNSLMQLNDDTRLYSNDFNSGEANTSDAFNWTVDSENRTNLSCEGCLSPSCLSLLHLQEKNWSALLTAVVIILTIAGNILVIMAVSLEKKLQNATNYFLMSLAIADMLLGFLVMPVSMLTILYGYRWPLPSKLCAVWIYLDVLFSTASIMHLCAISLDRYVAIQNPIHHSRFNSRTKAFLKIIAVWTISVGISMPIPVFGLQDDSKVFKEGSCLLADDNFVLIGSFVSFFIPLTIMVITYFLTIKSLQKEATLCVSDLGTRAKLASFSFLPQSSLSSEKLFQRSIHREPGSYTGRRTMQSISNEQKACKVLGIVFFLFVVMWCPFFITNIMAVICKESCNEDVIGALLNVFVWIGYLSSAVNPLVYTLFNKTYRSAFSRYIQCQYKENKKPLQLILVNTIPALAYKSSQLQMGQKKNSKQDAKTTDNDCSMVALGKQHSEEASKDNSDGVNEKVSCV

Histamine H1 receptor = Histamine H1 receptor (Homo sapiens, UniProt P35367); type: functional, cell-based
Histamine H1 receptor, sequence (P35367 whole entry): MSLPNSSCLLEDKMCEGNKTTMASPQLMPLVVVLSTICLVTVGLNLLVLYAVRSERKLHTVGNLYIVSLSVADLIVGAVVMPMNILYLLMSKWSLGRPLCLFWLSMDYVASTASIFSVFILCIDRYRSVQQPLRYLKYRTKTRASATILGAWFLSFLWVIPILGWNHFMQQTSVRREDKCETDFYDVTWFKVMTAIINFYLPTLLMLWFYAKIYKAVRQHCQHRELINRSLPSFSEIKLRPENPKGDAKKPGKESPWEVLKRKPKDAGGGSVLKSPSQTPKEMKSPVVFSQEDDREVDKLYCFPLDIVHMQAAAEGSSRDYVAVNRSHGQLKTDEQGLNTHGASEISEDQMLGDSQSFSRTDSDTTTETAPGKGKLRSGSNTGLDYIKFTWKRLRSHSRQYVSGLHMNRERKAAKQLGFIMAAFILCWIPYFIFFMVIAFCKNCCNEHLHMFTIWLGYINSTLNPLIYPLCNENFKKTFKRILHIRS

Androgen receptor = target: T2, Androgen receptor (Rattus norvegicus, UniProt P15207)
T2 sequence (P15207 whole entry): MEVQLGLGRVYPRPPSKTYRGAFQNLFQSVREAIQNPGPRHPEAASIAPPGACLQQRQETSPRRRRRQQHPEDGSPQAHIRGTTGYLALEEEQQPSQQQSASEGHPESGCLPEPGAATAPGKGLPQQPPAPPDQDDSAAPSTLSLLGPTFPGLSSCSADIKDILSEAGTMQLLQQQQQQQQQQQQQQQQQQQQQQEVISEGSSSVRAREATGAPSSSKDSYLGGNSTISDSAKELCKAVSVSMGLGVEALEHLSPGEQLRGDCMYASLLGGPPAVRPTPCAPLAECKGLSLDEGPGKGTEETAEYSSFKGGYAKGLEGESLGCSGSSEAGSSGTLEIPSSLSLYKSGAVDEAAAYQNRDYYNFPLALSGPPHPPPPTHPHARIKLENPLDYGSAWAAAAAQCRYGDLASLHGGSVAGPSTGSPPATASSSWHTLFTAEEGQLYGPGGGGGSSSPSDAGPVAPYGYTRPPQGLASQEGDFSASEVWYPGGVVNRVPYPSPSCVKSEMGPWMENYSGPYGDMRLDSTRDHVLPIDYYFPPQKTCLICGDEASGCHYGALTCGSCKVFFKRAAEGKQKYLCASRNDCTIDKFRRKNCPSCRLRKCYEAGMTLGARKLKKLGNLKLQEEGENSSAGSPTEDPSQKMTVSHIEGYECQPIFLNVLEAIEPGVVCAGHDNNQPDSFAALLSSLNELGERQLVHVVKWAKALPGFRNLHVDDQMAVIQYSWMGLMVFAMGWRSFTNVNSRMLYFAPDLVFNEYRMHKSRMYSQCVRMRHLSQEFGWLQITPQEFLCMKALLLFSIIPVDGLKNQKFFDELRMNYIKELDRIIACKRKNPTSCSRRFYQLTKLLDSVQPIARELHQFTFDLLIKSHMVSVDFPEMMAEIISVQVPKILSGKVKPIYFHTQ

[3] = target: T3, Type-2 angiotensin II receptor (Homo sapiens, UniProt P50052); type: functional
T3 sequence (P50052 whole entry): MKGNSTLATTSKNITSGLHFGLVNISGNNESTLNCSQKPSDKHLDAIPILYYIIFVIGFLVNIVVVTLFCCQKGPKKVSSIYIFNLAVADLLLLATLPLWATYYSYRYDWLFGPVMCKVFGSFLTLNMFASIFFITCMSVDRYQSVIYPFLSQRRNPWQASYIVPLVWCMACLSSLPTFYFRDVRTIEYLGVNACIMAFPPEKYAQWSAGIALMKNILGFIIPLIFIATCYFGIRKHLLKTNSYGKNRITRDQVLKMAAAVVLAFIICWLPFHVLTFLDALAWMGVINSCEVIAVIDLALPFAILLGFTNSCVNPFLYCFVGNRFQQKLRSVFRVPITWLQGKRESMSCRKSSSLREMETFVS

[4] = target: T4, Muscarinic acetylcholine receptor M1 (Homo sapiens, UniProt P11229)
T4 sequence (P11229 whole entry): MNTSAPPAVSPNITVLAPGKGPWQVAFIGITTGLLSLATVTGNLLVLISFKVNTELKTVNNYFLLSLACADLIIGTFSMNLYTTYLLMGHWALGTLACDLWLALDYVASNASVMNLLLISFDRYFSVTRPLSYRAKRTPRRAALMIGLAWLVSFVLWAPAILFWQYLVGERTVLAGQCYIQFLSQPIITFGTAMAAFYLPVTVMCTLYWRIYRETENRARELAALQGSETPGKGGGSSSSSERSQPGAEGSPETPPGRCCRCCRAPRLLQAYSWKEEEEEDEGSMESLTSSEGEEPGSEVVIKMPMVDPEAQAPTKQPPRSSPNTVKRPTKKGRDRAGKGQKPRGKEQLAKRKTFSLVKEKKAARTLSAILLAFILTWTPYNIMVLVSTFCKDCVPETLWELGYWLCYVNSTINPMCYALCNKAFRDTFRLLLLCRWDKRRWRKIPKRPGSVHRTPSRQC

[5] = target: Beta-1 adrenergic receptor (Homo sapiens, UniProt P08588); type: functional, cell-based
Beta-1 adrenergic receptor, sequence (P08588 whole entry): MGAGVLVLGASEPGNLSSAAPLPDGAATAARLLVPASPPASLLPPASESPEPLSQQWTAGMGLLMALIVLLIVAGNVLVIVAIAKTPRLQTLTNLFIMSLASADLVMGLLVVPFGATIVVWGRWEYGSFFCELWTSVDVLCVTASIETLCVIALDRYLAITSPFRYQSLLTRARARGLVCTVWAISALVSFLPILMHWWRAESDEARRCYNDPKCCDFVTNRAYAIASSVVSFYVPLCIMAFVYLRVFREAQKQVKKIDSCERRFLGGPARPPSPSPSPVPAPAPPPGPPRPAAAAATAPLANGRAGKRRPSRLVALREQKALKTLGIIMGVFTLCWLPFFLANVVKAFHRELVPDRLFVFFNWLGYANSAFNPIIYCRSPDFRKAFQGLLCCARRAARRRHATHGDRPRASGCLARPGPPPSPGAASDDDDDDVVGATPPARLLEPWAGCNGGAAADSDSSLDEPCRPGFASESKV

[6] = target: T5, Peroxisome proliferator-activated receptor gamma (Homo sapiens, UniProt P37231); type: functional
T5 sequence (P37231 whole entry): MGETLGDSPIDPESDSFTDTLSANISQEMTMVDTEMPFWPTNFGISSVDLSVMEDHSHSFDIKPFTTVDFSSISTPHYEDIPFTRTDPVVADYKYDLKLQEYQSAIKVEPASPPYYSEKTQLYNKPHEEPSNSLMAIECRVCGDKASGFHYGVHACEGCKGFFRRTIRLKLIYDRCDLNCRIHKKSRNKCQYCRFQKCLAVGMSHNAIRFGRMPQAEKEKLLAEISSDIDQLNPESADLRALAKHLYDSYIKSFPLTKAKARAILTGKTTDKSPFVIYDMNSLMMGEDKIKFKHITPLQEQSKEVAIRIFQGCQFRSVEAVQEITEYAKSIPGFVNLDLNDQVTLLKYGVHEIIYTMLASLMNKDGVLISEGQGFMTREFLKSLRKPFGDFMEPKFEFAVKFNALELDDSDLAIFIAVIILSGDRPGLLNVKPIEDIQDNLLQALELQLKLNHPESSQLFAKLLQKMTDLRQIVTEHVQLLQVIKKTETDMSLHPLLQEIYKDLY

[7] = target: 5-hydroxytryptamine receptor 6 (Homo sapiens, UniProt P50406)
5-hydroxytryptamine receptor 6, sequence (P50406 whole entry): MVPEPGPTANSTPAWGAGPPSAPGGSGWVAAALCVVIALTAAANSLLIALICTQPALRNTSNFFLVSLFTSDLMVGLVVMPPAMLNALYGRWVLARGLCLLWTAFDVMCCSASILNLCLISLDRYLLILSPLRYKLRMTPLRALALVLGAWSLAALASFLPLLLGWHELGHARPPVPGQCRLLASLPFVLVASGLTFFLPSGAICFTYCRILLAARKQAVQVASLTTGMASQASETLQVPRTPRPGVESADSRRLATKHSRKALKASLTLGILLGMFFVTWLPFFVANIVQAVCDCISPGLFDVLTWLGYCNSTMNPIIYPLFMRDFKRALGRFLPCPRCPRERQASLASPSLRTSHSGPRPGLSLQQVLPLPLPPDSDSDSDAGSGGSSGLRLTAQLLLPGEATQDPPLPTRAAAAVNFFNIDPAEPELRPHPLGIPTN
Further: assay procedure not described here.

`COc1ccc(C(=O)Nc2ccccc2CCC2CCCCN2C)cc1` (centres undefined) [ENCAINIDE] was tested, and the AC50 [1] was greater than 10 µM, the AC50 [2] was 0.103 µM and the AC50 (Histamine H1 receptor) was greater than 30 µM.

With `CCOc1ccc(Cc2cc([C@@H]3O[C@H](CO)[C@@H](O)[C@H](O)[C@H]3O)ccc2Cl)cc1` [DAPAGLIFLOZIN] the AC50 [1] was greater than 10 µM and the AC50 (Androgen receptor) was greater than 30 µM.

Compound `CCOC(=O)/C=C1\SC(N2CCCCC2)C(=O)N1C` (centres undefined) [ETOZOLIN] has an AC50 [3] greater than 100 µM.

`Nc1ccncc1N` [AMIFAMPRIDINE] gave an AC50 [4] greater than 30 µM.

In the case of `COc1ccccc1N1CCN(CC(O)COc2cccc3ccccc23)CC1` (centres undefined) [NAFTOPIDIL], the AC50 [4] is reported as greater than 30 µM and the AC50 [5] is reported as greater than 30 µM.

With `Cc1oc(=O)oc1CN1CCN(c2cc3c(cc2F)c(=O)c(C(=O)O)c2n3C(C)S2)CC1` (centres undefined) [PRULIFLOXACIN] the AC50 [4] was greater than 30 µM.

`CN1CCN(C2=Nc3ccccc3Sc3ccc(Cl)cc32)CC1` [CLOTHIAPINE] showed an AC50 (Histamine H1 receptor) greater than 30 µM.

In the case of `CN(C)CCc1c[nH]c2ccc(C[C@H]3COC(=O)N3)cc12` [ZOLMITRIPTAN], the AC50 (Histamine H1 receptor) is reported as greater than 30 µM.

For `O=[N+]([O-])O[C@@H]1CO[C@H]2[C@@H]1OC[C@@H]2O` [ISOSORBIDE MONONITRATE], the AC50 [1] was greater than 10 µM and the AC50 [2] was greater than 10 µM.

For `CCN1CCCC1CNC(=O)c1cc(S(N)(=O)=O)ccc1OC` (centres undefined) [SULPIRIDE], the AC50 [3] was greater than 100 µM.

Compound `CC[C@H]1CN2CCc3cc(OC)c(OC)cc3[C@@H]2C[C@@H]1C[C@H]1NCCc2cc(OC)c(OC)cc21` [EMETINE] has an AC50 [6] greater than 30 µM.

Compound `C=CCCCCCCCCC(=O)O` [UNDECYLENIC ACID] has an AC50 [4] greater than 30 µM.

In the case of `C=CCN1C[C@H](C(=O)N(CCCN(C)C)C(=O)NCC)C[C@@H]2c3cccc4[nH]cc(c34)C[C@H]21` [CABERGOLINE], the AC50 [2] is reported as 0.0077 µM.

`CCC(CC)(CC(=O)Nc1cccc(/C=C/c2nc(C3CCC3)cs2)c1)C(=O)O` gave an AC50 [6] greater than 30 µM.

`CN(C)CC/C=C1\c2ccccc2CSc2ccccc21` [DOTHIEPIN] was tested, and the AC50 [5] was greater than 30 µM.

`CC[C@@H](C(N)=O)N1CCCC1=O` was tested, and the AC50 [6] was greater than 30 µM.

In the case of `Cc1cc(C)c(NC(=O)CN(CC(=O)O)CC(=O)O)c(C)c1Br` [MEBROFENIN], the AC50 [4] is reported as greater than 30 µM.

`CCCCCNC(=N)N/N=C/c1c[nH]c2ccc(OC)cc12` [TEGASEROD] gave an AC50 [2] of 0.174 µM, an AC50 [6] greater than 30 µM and an AC50 [7] of 0.198 µM.

Work on `CCOc1ccccc1OCC1CNCCO1` (centres undefined) [VILOXAZINE] yielded an AC50 [1] greater than 10 µM, an AC50 [7] greater than 10 µM and an AC50 (Histamine H1 receptor) greater than 30 µM. For the same compound, the AC50 (Androgen receptor) was greater than 30 µM and the AC50 [3] was greater than 100 µM.

Work on `O=[N+]([O-])c1cn2c(n1)OC[C@@H](OCc1ccc(OC(F)(F)F)cc1)C2` [PRETOMANID] yielded an AC50 [2] greater than 10 µM and an AC50 [7] greater than 10 µM.

`COc1cc2nc(N3CCN(C(=O)c4ccco4)CC3)nc(N)c2cc1OC` [PRAZOSIN] gave an AC50 [1] of 13.2 µM and an AC50 [3] greater than 100 µM.
